The values below come from patent US20250129102A1, “CRYSTAL FORM OF PYRIMIDINE HETEROCYCLIC COMPOUND AND PREPARATION METHOD THEREFOR” (D3 Bio (Wuxi) Co., Ltd., priority 2021, published 2025).

SMILES strings stand for the structures.

Data set [1] can be described thus: Solid stability assay of crystal form A (XRPD). In kind it is physicochemical. An excerpt: The sample was spread into a thin layer. For the samples placed under conditions of high temperature and high humidity, the vial mouth was sealed with aluminum foil, and some small holes were punched in the aluminum foil to ensure that the samples were fully in contact with the ambient air. For the samples placed under condition of strong light, the vial mouth was sealed with aluminum foil, and some small holes were punched in the aluminum foil. Samples placed under different conditions were sampled and tested (XRPD) on day 5 and day 10, respectively. The assay results were compared with the initial assay results on day 0.
Each medicinal low-density polyethylene bag was tied tightly with a tie, and then was placed into a single-layer aluminum foil bag. The single-layer aluminum foil bag was then heat-sealed. Finally, the samples were stored in plastic buckets and stored in a chamber with constant temperature and humidity. The packaging used in the stability assay simulated the material storage packaging. The material was divided into 1.5 g/package as stability samples under red light. Each sample was packaged in the same way and labeled with a stability sample label. The samples placed under different conditions were sampled and tested (XRPD) in the 3rd and 6th months. The assay results were compared with the initial assay results on day 0.

The nature of data set [2]: Pharmacokinetics by oral administration in beagle dogs. The data set is classed as in vivo. Conditions: male, dog, plasma, 24.5 mg/kg, 0.5% methylcellulose. How it is done: 680.397 mg of assay compound powder was accurately weighed, and 50 mL of 0.500 methylcellulose (400 viscosity) aqueous solution was added. The mixture was stirred for 10 minutes, and sonicated for 10 minutes. 50 mL of 0.5% o methylcellulose (400 viscosity) aqueous solution was added, and homogenized for 10 minutes using a homogenizer. 11 mL of 0.5% o methylcellulose (400 viscosity) aqueous solution was added. The mixture was sonicated for 5 minutes and stirred for 10 minutes. 358 μL of 0.5% o methylcellulose (400 viscosity) aqueous solution was added and stirred for 2 minutes. Male beagle dogs aged over six months were selected, and administered candidate compound solution orally. Whole blood was collected for a certain period of time, and prepared to obtain plasma. Drug concentration was analyzed by LC-MS/MS method, and pharmacokinetic parameters were calculated by Phoenix WinNonlin software (Pharsight, USA). The results of the assay are shown in Table 14: […]

Data set [3] in a line: Pharmacokinetics of crystal form A by oral administration in SD rats. Conditions: male, rat, plasma, 92.3 mg/kg, suspension in 0.5% methylcellulose. The data set is classed as in vivo. The procedure:
Male SD rats aged 7 to 10 weeks were selected, and administered candidate compound solution orally. Whole blood was collected for a certain period of time, and prepared to obtain plasma. Drug concentration was analyzed by LC-MS/MS method, and pharmacokinetic parameters were calculated by Phoenix WinNonlin software (Pharsight, USA).

Setting [4] is: read-out: Area under the plasma concentration-time curve, AUC0-last.
Setting [5] is: read-out: Peak concentration, Cmax.

Broadly, the Tmax is the time at which the peak concentration occurs. Regarding `C=C(F)C(=O)N1CCN(c2nc(OC[C@@]34CCCN3C[C@H](F)C4)nc3c2CO[C@H](c2c(F)c(N)cc(C)c2C(F)(F)F)C3)C[C@@H]1CC#N`, the Crystal form entry in data set [1] (25 ± 2° C./60 ± 5% relative humidity, 3 months) is reported as “Crystal form A”; in data set [1] (25 ± 2° C./60 ± 5% relative humidity, 6 months) it was “Crystal form A”; in data set [1] (40 ± 2° C./75 ± 5% relative humidity, 3 months), “Crystal form A”; in data set [1] (40 ± 2° C./75 ± 5% relative humidity, 6 months) it was “Crystal form A”; in data set [1] (High humidity (25° C./relative humidity 92.5%, unsealed), 5 days), “Crystal form A”; in data set [1] (High humidity (25° C./relative humidity 92.5%, unsealed), 10 days), “Crystal form A”. Further, the Crystal form result in data set [1] (High temperature (60° C., unsealed), 5 days) is listed as “Crystal form A”; in data set [1] (High temperature (60° C., unsealed), 10 days) it was “Crystal form A”; in data set [1] (Light control, 5 days), “Crystal form A”; in data set [1] (Light control, 10 days), “Crystal form A”; in data set [1] (initial, 0 day (XRPD)), “Crystal form A”. Moreover, in data set [1] (high temperature, high humidity, strong light, long-term and accelerated experiments), the solid stability result was “good stability”. Moreover, the AUC(0-t) came to 16.7 µM·h in data set [2] (setting [4]) and 11.5 µM·h in data set [3] (setting [4]). Further, the results for the Cmax in data set [2] (setting [5]) and in data set [3] (setting [5]) were 2440 nM and 1400 nM, respectively. In addition, the Tmax in data set [2] (read-out: Time-to-peak, Tmax) came out at 2.5 h; in data set [3] (read-out: Time-to-peak, Tmax), 5.33 h.
